35 molecules from patent US12545659B2, “IRAK degraders and uses thereof” (Kymera Therapeutics, Inc., priority 2019, dated 2026) can be followed below.

Each structure is given as a SMILES string. Where only a bound is given, the exact number is not on record here.

Broadly, the DC50 is the midpoint of the concentration-degradation curve.

One test concerns the target T1, IRAK4 (Homo sapiens, UniProt Q9NWZ3).
T1 construct: endogenous in cells; host or cells: OCI-LY10
T1 sequence (Q9NWZ3 1-460): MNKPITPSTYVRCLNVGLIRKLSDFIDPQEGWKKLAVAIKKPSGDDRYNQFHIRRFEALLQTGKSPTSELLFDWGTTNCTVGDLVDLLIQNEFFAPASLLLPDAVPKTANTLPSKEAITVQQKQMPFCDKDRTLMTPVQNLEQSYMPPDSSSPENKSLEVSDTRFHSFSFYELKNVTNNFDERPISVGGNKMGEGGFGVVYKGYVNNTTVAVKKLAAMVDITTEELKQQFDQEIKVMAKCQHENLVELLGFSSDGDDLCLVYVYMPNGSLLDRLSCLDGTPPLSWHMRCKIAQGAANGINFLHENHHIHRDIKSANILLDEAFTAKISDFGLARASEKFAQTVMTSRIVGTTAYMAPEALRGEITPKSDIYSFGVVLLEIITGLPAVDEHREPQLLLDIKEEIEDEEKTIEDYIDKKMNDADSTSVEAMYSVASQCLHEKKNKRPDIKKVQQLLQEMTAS
Nature of the test: IRAK4 MSD Degradation in OCI-LY10. As to conditions: OCI-LY10 cells, 4 hrs incubation, read-out: IRAK4 degradation in OCI-LY10 at 4 hrs: DC50. Type of test: cell-based. The gist of the method: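 IRAK4 remaining in lysates was read by Meso Scale electrochemiluminescence sandwich (2H9 capture, Y279 plus SULFO-TAG detection). Cells were exposed 4 to 24 h at 37 °C to eight 3-fold dilutions from 1 to 10 μM final top; three-parameter logistic fit gave DC50.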
Turning to `COc1cc2nn([C@H]3CC[C@H](CN4CCC5(CC4)CC(CNc4cccc6c4n(C)c(=O)n6C4CCC(=O)NC4=O)C5)CC3)cc2cc1NC(=O)c1cccc(C(F)(F)F)n1` (some centres unmarked) [I-163], the DC50 was 50 to 100 nM.

Take `Cn1c(=O)n(C2CCC(=O)NC2=O)c2cccc(NCC3CC4(CCN(C[C@H]5CC[C@H](n6cc7cc(NC(=O)c8cccc(C(F)(F)F)n8)c(C(C)(C)O)cc7n6)CC5)CC4)C3)c21` (some centres unmarked) [I-166]: the 50% degradation concentration (DC50) is less than 50 nM.

As to `COc1cc2nn([C@H]3CC[C@H](CN4CCN(c5cccc6c5n(C)c(=O)n6C5CCC(=O)NC5=O)CC4)CC3)cc2cc1NC(=O)c1cccc(C(C)(C)F)n1` (some centres unmarked) [I-167], the DC50 was 50 to 100 nM.

Consider `CN(C[C@H]1CC[C@H](n2cc3cc(NC(=O)c4cccc(C(F)(F)F)n4)c(C(F)F)cc3n2)CC1)C1CCN(c2cccc3c2n(C)c(=O)n3C2CCC(=O)NC2=O)CC1` (some centres unmarked) [I-168], for which the DC50 was less than 50 nM.

As for `Cn1c(=O)n(C2CCC(=O)NC2=O)c2cccc(N3CCN(C[C@H]4CC[C@H](n5cc6cc(NC(=O)c7cccc(C(F)(F)F)n7)c(OC(F)(F)F)cc6n5)CC4)CC3)c21` (some centres unmarked) [I-169], the DC50 was in the range of 50 to 100 nM.

As for `COc1cc2nn([C@H]3CC[C@H](CN4CCN(c5cccc6c5n(C)c(=O)n6C5CCC(=O)NC5=O)CC4)CC3)cc2cc1NC(=O)c1cccc(C(F)(F)F)n1` (some centres unmarked) [I-171], the DC50 is less than 50 nM.

As for `Cn1c(=O)n(C2CCC(=O)NC2=O)c2cccc(N3CCN(C[C@H]4CC[C@H](n5cc6cc(NC(=O)c7cccc(C(F)(F)F)n7)c(C(C)(C)O)cc6n5)CC4)CC3)c21` (some centres unmarked) [I-172], the DC50 is less than 50 nM.

Regarding `Cn1c(=O)n(C2CCC(=O)NC2=O)c2cccc(N3CCN(C[C@H]4CC[C@H](n5cc6cc(NC(=O)c7cccc(C(F)(F)F)n7)c(C(F)F)cc6n5)CC4)CC3)c21` (some centres unmarked) [I-176], the 50% degradation concentration (DC50) is less than 50 nM.

In the case of `Cn1c(=O)n(C2CCC(=O)NC2=O)c2cccc(N3CCN(C[C@H]4CC[C@H](n5cc6cc(NC(=O)c7cccc(C(C)(C)F)n7)c(C(F)F)cc6n5)CC4)CC3)c21` (some centres unmarked) [I-177], the DC50 was in the range of 50 to 100 nM.

Take `CN(C[C@H]1CC[C@H](n2cc3cc(NC(=O)c4cccc(C(F)(F)F)n4)c(N4CCOCC4)cc3n2)CC1)C1CCN(c2cccc3c2n(C)c(=O)n3C2CCC(=O)NC2=O)CC1` (some centres unmarked) [I-178]: the DC50 was less than 50 nM.

Regarding `CN(C[C@H]1CC[C@H](n2cc3cc(NC(=O)c4cccc(C(F)(F)F)n4)c(N4C[C@@H]5C[C@H]4CO5)cc3n2)CC1)C1CCN(c2cccc3c2n(C)c(=O)n3C2CCC(=O)NC2=O)CC1` (some centres unmarked) [I-179], the DC50 is less than 50 nM.

Consider `COc1cc2nn([C@H]3CC[C@H](CN(C)C4CCN(c5cccc6c5n(C)c(=O)n6C5CCC(=O)NC5=O)CC4)CC3)cc2cc1NC(=O)c1ccc(F)c(C)n1` (some centres unmarked) [I-189], for which the DC50 was less than 50 nM.

Consider `Cn1c(=O)n(C2CCC(=O)NC2=O)c2cccc(C[C@H]3C[C@H](OC4CCN(C[C@H]5CC[C@H](n6cc7cc(NC(=O)c8cccc(C(F)(F)F)n8)c(C(C)(C)O)cc7n6)CC5)CC4)C3)c21` (some centres unmarked) [I-203], for which the half-maximal degradation concentration (DC50) was less than 50 nM.

For the molecule `Cn1c(=O)n(C2CCC(=O)NC2=O)c2cccc(CCC3CC4(CCN(C[C@H]5CC[C@H](n6cc7cc(NC(=O)c8cccc(OC(F)(F)F)n8)c(C(C)(C)O)cc7n6)CC5)CC4)C3)c21` (some centres unmarked) [I-204], the DC50 lay within 50 to 100 nM.

As for `CN(CCCO[C@H]1C[C@H](Cc2cccc3c2n(C)c(=O)n3C2CCC(=O)NC2=O)C1)C[C@H]1CC[C@H](n2cc3cc(NC(=O)c4cccc(C(F)(F)F)n4)c(C(F)F)cc3n2)CC1` (some centres unmarked) [I-205], the DC50 lay within 50 to 100 nM.

Turning to `Cc1nc(C(=O)Nc2cc3cn([C@H]4CC[C@H](CN5CCC6(CC5)CC(CCc5cccc7c5n(C)c(=O)n7C5CCC(=O)NC5=O)C6)CC4)nc3cc2C(C)(C)O)ccc1F` (some centres unmarked) [I-206], the DC50 is less than 50 nM.

As to `COc1cccc(C(=O)Nc2cc3cn([C@H]4CC[C@H](CN5CCC6(CC5)CC(CCc5cccc7c5n(C)c(=O)n7C5CCC(=O)NC5=O)C6)CC4)nc3cc2C(C)(C)O)n1` (some centres unmarked) [I-207], the DC50 is 50 to 100 nM.

Staying with this test, now noted: OCI-LY10 cells, 24 hrs incubation, read-out: IRAK4 degradation in OCI-LY10 at 24 hrs: DC50.
For `COc1cc2nc([C@H]3CC[C@H](CN4CC5(CC(CCNc6cccc7c6C(=O)N(C6CCC(=O)NC6=O)C7=O)C5)C4)CC3)oc2cc1NC(=O)c1cccc(C(F)(F)F)n1` (some centres unmarked) [I-180], the DC50 is 100 to 500 nM.

For `CN[C@@H](C)C(=O)N[C@H](C(=O)N1CCC[C@H]1c1nc(C(=O)c2cccc(OCCCC3CC4(CCN(C[C@H]5CC[C@H](n6cc7cc(NC(=O)c8cccc(C(F)(F)F)n8)c(OC)cc7n6)CC5)CC4)C3)c2)cs1)C1CCCCC1` [I-181, N-[2-[4-[[2-[3-[3-[2-[(2S)-1-[(2S)-2-cyclohexyl-2-[[(2S)-2-(methylamino)propanoyl]amino]acetyl]pyrrolidin-2-yl]thiazole-4-carbonyl]phenoxy]propyl]-7-azaspiro[3.5]nonan-7-yl]methyl]cyclohexyl]-6-methoxy-indazol-5-yl]-6-(trifluoromethyl)pyridine-2-carboxamide], the DC50 fell in the range of 500 to 1000 nM.

Turning to `CC(C)(O)c1cc2nc([C@H]3CC[C@H](CN4CCC5(CC4)CC(CCNc4cccc6c4C(=O)N(C4CCC(=O)NC4=O)C6=O)C5)CC3)oc2cc1NC(=O)c1cccc(C(F)(F)F)n1` (some centres unmarked) [I-182], the DC50 was in the range of 500 to 1000 nM.

As to `CC(C)(O)c1cc2nc([C@H]3CC[C@H](CN4CCC5(CC4)CC(Nc4cccc6c4C(=O)N(C4CCC(=O)NC4=O)C6=O)C5)CC3)oc2cc1NC(=O)c1cccc(C(F)(F)F)n1` (some centres unmarked) [I-183], the DC50 lay within 50 to 100 nM.

On to `CC(C)(O)c1cc2nc(N3CCC(CN4CCC5(CC4)CC(Nc4cccc6c4C(=O)N(C4CCC(=O)NC4=O)C6=O)C5)CC3)oc2cc1NC(=O)c1cccc(C(F)(F)F)n1` (centres unmarked) [I-184], for which the DC50 lay in the range of 50 to 100 nM.

Take `COc1cc2nn([C@H]3CC[C@H](CN(C)[C@H]4CC[C@]5(CC4)C[C@@H](CNc4cccc6c4C(=O)N(C4CCC(=O)NC4=O)C6=O)C5)CC3)cc2cc1NC(=O)c1cccc(C(F)(F)F)n1` (some centres unmarked) [I-185]: the 50% degradation concentration (DC50) was in the range of 50 to 100 nM.

Regarding `CN[C@@H](C)C(=O)N[C@H](C(=O)N1Cc2cc(OCCCC3CC4(CCN(C[C@H]5CC[C@H](n6cc7cc(NC(=O)c8cccc(C(F)(F)F)n8)c(OC)cc7n6)CC5)CC4)C3)ccc2C[C@H]1C(=O)N[C@@H]1CCCc2ccccc21)C(C)(C)C` [I-186, (3S)-2-[(2S)-3,3-Dimethyl-2-[[(2S)-2-(methylamino)propanoyl]amino]butanoyl]-7-[3-[7-[[4-[6-methoxy-5-[[6-(trifluoromethyl)pyridine-2-carbonyl]amino]indazol-2-yl]cyclohexyl]methyl]-7-azaspiro[3.5]nonan-2-yl]propoxy]-N-[(1R)-tetralin-1-yl]-3,4-dihydro-1H-isoquinoline-3-carboxamide], the DC50 was in the range of 500 to 1000 nM.

`CC(C)(O)c1cc2nn([C@H]3CC[C@H](CN4CCC5(CC4)CC(CNc4cccc6c4C(=O)N(C4CCC(=O)NC4=O)C6=O)C5)CC3)cc2cc1NC(=O)c1cccc(S(F)(F)(F)(F)F)n1` (some centres unmarked) [I-187]: the half-maximal degradation concentration (DC50) lay within 50 to 100 nM.

As for `COc1c(NC(=O)c2cccc(C(C)(F)F)n2)cc2cn([C@H]3CC[C@H](CN4CC5(CC(CCNc6cccc7c6C(=O)N(C6CCC(=O)NC6=O)C7=O)C5)C4)CC3)nc2c1C` (some centres unmarked) [I-188], the DC50 was 50 to 100 nM.

`C[C@]1(CN2CCC3(CC2)CC(CCNc2cccc4c2C(=O)N(C2CCC(=O)NC2=O)C4=O)C3)Cc2cc(NC(=O)c3cnn4cccnc34)c(N3CCOCC3)cc2O1` (stereo partly drawn) [I-196, N-[(2R)-2-[[2-[2-[[2-(2,6-dioxo-3-piperidyl)-1,3-dioxo-isoindolin-4-yl]amino]ethyl]-7-azaspiro[3.5]nonan-7-yl]methyl]-2-methyl-6-morpholino-3H-benzofuran-5-yl]pyrazolo[1,5-a]pyrimidine-3-carboxamide]: the DC50 was 500 to 1000 nM.

As to `CC(C)(O)c1cc2nc(N3CCC(CN4CCC5(CC4)CC(CCNc4cccc6c4C(=O)N(C4CCC(=O)NC4=O)C6=O)C5)CC3)oc2cc1NC(=O)c1cccc(C(F)(F)F)n1` (centres unmarked) [I-197], the DC50 is 500 to 1000 nM.

For `COc1cc2nc([C@H]3CC[C@H](CN4CC5(CC(CCNc6cccc7c6C(=O)N(C6CCC(=O)NC6=O)C7=O)C5)C4)CC3)oc2cc1NC(=O)c1cccc(C(C)(F)F)n1` (some centres unmarked) [I-198], the DC50 is 50 to 100 nM.

As for `O=C1CCC(N2C(=O)c3cccc(NCCC4CC5(CCN(C[C@H]6CC[C@H](c7nc8cc(N9CCOCC9)c(NC(=O)c9cccc(C(F)(F)F)n9)cc8o7)CC6)CC5)C4)c3C2=O)C(=O)N1` (some centres unmarked) [I-199], the DC50 is 500 to 1000 nM.

Take `CC(F)(F)c1cccc(C(=O)Nc2cc3cn([C@H]4CC[C@H](CN5CC6(CC(CCNc7cccc8c7C(=O)N(C7CCC(=O)NC7=O)C8=O)C6)C5)CC4)nc3cc2OC2CC2)n1` (some centres unmarked) [I-200]: the DC50 was in the range of 50 to 100 nM.

As for `CC(C)Oc1cc2nn([C@H]3CC[C@H](CN4CCC5(CC4)CC(Nc4cccc6c4C(=O)N(C4CCC(=O)NC4=O)C6=O)C5)CC3)cc2cc1NC(=O)c1cccc(C(F)(F)F)n1` (some centres unmarked) [I-202], the DC50 was in the range of 50 to 100 nM.

`COc1cc2nn([C@H]3CC[C@H](CN4CCC5(CC4)CC(CCNc4cccc6c4C(=O)N(C4CCC(=O)NC4=O)C6=O)C5)CC3)cc2cc1NC(=O)c1nc(C(F)(F)F)cs1` (some centres unmarked) [I-208]: the DC50 is 100 to 500 nM.

Turning to `COc1cc2nn([C@H]3CC[C@H](CN4CCC5(CC4)CC(CNc4cccc6c4C(=O)N(C4CCC(=O)NC4=O)C6=O)C5)CC3)cc2cc1NC(=O)c1cccc(C(F)F)n1` (some centres unmarked) [I-209], the DC50 was less than 50 nM.

Consider `COc1cc2nn([C@H]3CC[C@H](CN(C)[C@H]4CC[C@H](CNc5cccc6c5C(=O)N(C5CCC(=O)NC5=O)C6=O)CC4)CC3)cc2cc1NC(=O)c1cccc(C(F)(F)F)n1` (some centres unmarked) [I-210], for which the DC50 was in the range of 50 to 100 nM.
